Measurements: patent US6838436B1, “Inhibitors of proteasomal activity for stimulating bone growth” (Osteoscreen Inc., priority 1998, dated 2005)
Like-named read-outs stand apart in the source and are kept apart here. Where a SMILES comes first, the peptide text is derived from it. [ ]: non-standard residue; d: D form. Nle = CCCC[C@H](N)C(=O)O

Legend:
mouse BMP2 promoter = test: High throughput screen (ABA assay): BMP2 promoter-luciferase reporter in 2T3-BMP-2-LUC osteoblast cells; assay type: cell-based; details: for EC50: Mus musculus, Osteoblast, read-out: Luciferase Activity (ED50-μM)
Excerpt: 1995, the entire contents of which are incorporated herein by reference. This assay is also described as a portion of a study of immortalized murine osteoblasts (derived from a mouse expressing a transgene composed of a BMP2 promoter driving expression of T-antigen) in Ghosh-Choudhery, N., et al., Endocrinology (1996) 137:331-39. In this study, the immortalized cells were stably transfected with a plasmid containing a luciferase reporter gene driven by a mouse BMP2 promoter (−2736/114 bp), and responded in a dose-dependent manner to recombinant human BMP2.
Briefly, the assay utilizes cells transformed permanently or transiently with constructs in which the promoter of a bone morphogenetic protein, specifically BMP2 or BMP4, is coupled to a reporter gene, typically luciferase. These transformed cells are then evaluated for the production of the reporter gene product; compounds that activate the BMP promoter will drive production of the reporter protein, which can be readily assayed. Many thousands of compounds have been subjected to this rapid screening technique, and only a very small percentage are able to elicit a level of expression of reporter gene 5-fold greater than that produced by vehicle. […] The active compounds (“BMP promoter-active compounds” or “active compounds”) are useful in promoting bone or cartilage growth, and thus in the treatment of vertebrates in need of bone or cartilage growth.
Thousands of compounds have been tested in the assay system set forth in U.S. Ser. No. 08/458,434, filed 2 Jun. 1995, and incorporated herein by reference. […] In this screen, the standard positive control was the compound 59-0008 (also denoted “OS8”), which is of the formula: [drawing 22]
In more detail, the 2T3-BMP-2-LUC cells, a stably transformed osteoblast cell line described in Ghosh-Choudhury et al. Endocrinology (1996) 137:331-39, referenced above, was employed. The cells were cultured using α-MEM, 10% FCS with 1% penicillin/streptomycin and 1% glutamine (“plating medium”), and were split 1:5 once per week. For the assay, the cells were resuspended in a plating medium containing 4% FCS, plated in microtiter plates at a concentration of 5×10^3 cells (in 50 μl)/well, and incubated for 24 hours at 37° C. in 5% CO2. To initiate the assay, 50 μl of the test compound or the control in DMSO was added at 2× concentration to each well, so that the final volume was 100 μl. The final serum concentration was 2% FCS, and the final DMSO concentration was 1%. Compound 59-0008 (10 μM) was used as a positive control.
The treated cells were incubated for 24 hours at 37° C. and 5% CO2. The medium was then removed, and the cells were rinsed three times with PBS. After removal of excess PBS, 25 μl of 1× cell culture lysing reagent (Promega #E153A) was added to each well and incubated for at least ten minutes. Optionally, the plates/samples could be frozen at this point. To each well was added 50 μl of luciferase substrate (Promega #E152A; 10 ml Promega luciferase assay buffer per 7 mg Promega luciferase assay substrate). Luminescence was measured on an automated 96-well luminometer, and was expressed as either picograms of luciferase activity per well or as picograms of luciferase activity per microgram of protein.
Accordingly, other tested compounds can be evaluated at various concentrations, and the results compared to the results obtained for 59-0008 at 10 μM (which value would be normalized to 100). Alternatively, the reactivity of a compound to be tested can be compared directly to a negative control containing no compound.

proteasomal activity = details: cited from earlier work
[1] = target: T1, 20S thermophila proteasome (Methanosarcina thermophila, UniProt Q9P992); test: biochemical
T1 construct: purchased CalBiochem, San Diego, Calif
T1 sequence (Q9P992 10-210): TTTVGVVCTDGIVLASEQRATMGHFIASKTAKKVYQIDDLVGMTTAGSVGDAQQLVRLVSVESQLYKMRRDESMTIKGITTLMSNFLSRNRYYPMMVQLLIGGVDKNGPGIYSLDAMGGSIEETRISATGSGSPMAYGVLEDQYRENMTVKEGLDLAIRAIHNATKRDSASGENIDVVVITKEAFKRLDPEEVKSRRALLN
T1 sequence (Q59565 1-247 partner): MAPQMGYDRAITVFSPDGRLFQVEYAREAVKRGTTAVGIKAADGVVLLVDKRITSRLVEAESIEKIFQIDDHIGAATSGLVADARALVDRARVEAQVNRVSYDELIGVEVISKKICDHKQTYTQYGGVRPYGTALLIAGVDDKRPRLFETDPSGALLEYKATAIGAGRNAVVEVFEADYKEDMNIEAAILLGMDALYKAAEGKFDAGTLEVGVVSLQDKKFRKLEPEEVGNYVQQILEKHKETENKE
Procedure: The assay involves incubating the potential inhibitor with 20S thermophila proteasomes which, in purified form, are commercially available, with a fluorogenic peptide substrate. The presence of an inhibitor will reduce the amount of fluorescence generated by the action of the proteasome fraction on the fluorogenic peptide. This assay is described in further detail in Coux, O., et al., N Rev Biochem (1996) 65:801; Adams, J., et al., Cancer Res (1999) 59:2615; and Craiu, A., et al., J Biol Chem (1997) 272:13437. Further reports are set forth in Hilt, W., et al., Trans Biochem Sci (1996) 21:96; Peters, J., Trends Biochem Sci (1994) 19:377; Maupin-Furlow, J. A., et al., J Biol Chem (1995) 270:28617; and Jensen, T. J., et al., Cell (1995) 83:129. Fluorogenic substrates and purified proteasomes are available, for example, from CalBiochem, San Diego, Calif.
Purified 20S thermophila proteasomes and the fluorogenic peptide substrate Suc-Leu-Leu-Val-Tyr-AMC (SEQ ID NO:3) are available from CalBiochem, San Diego, Calif. Briefly, serial dilutions of the inhibitor to be tested were mixed with proteasome solution at a concentration of proteasome of 0.01 mg/ml. After 30 min incubation at 37° C., substrate solution at a final concentration of 25-30 μg/ml was added and the mixture incubated at 37° C. and then read at 15 min, 30 min, and 60 min in a Fluoroscan instrument. The percentage diminution in fluorescence in the presence as compared to the absence of inhibitor is then calculated.

hair follicles = test: Induction of anagen in hair follicles in vivo (Example 12); design: species or system C57 black mice
Procedure: Inhibitors of the proteasomal chymotrypsin-like activity were treated for their capacity to induce transit of hair follicles into anagen in vivo in C57 black mice eight weeks of age.

neonatal mouse calvaria = test: Neonatal mouse calvaria assay (in vitro / ex vivo) for bone formation; assay type: cell-based, ICR Swiss white mouse; details: for EC50: Mus musculus, read-out: Bone Formation (ED50-μM)
Procedure: An assay for bone resorption or bone formation is similar to that described by Gowen M. & Mundy G., J Immunol (1986) 136:2478-82. Briefly, four days after birth, the front and parietal bones of ICR Swiss white mouse pups are removed by microdissection and split along the sagittal suture. In an assay for resorption, the bones are incubated in BGJb medium (Irvine Scientific, Santa Ana, Calif.) plus 0.02% (or lower concentration) β-methylcyclodextrin, wherein the medium also contains test or control substances. The medium used when the assay is conducted to assess bone formation is Fitton and Jackson Modified BGJ Medium (Sigma) supplemented with 6 μg/ml insulin, 6 μg/ml transferrin, 6 ng/ml selenous acid, calcium and phosphate concentrations of 1.25 and 3.0 mM, respectively, and ascorbic acid to a concentration of 100 μg/ml is added every two days. The incubation is conducted at 37° C. in a humidified atmosphere of 5% CO2 and 95% air for 96 hours.
Following this, the bones are removed from the incubation media and fixed in 10% buffered formalin for 24-48 hours, decalcified in 14% EDTA for 1 week, processed through graded alcohols; and embedded in paraffin wax. Three […] sections of the calvaria are prepared. Representative sections are selected for histomorphometric assessment of bone formation or bone resorption. Bone changes are measured on sections cut 200 μm apart. Osteoblasts and osteoclasts are identified by their distinctive morphology.
Selected compounds and appropriate controls were assayed in vitro (ex vivo) for bone formation activity (described above in “Techniques for Neonatal Mouse Calvaria Assay (in vitro)). Histomorphometrical assessments of ex vivo calvaria were carried out using an OsteoMetrics bone morphometry measurement program, according to the manufacturer's instructions. Measurements were determined using either a 10- or 20-fold objective with a standard point counting eyepiece graticule.
New bone formation was determined (using a 10× objective) by measuring the new bone area formed in one field in 3 representative sections of each bone (4 bones per group). Each measurement was carried out ½ field distance from the end of the suture. Both total bone and old bone area were measured. Data were expressed as new bone area in μm^2.
Osteoblast numbers are determined by point counting. The number of osteoblast cells lining the bone surface on both sides of the bone are counted in one field using a 20× objective. Data are expressed as osteoblast numbers/mm of bone surface. […]

[2] = system: hair follicles of skin explants; test: Cultured skin explants from 5 day old mice, hair follicle diameter and elongation (Example 11); assay type: cell-based, C3H/HeS1c mice; details: 10 μM; 72 hours
Procedure: Cultured skin explants from 5 day old mice cultured for 72 hours were treated with proteasome inhibitors, non-proteasomal proteases and non-proteasomal inhibitors of NF-κB and effects on hair follicle diameter and follicle elongation were determined according to the method of Kamiya, T., et al., J Derm Sci (1998) 17:54-60. Skin slices from the dorsal skin of 5 day old C3H/HeS1c mice were cultured in 1 ml of αMEM and 0.1% BSA for 72 hours and then assessed for changes in hair follicle diameter and hair elongation under an inverted microscope, using image analysis. […] Thus, the chymotrypsin-like activity of the proteasome is the catalytic component of the proteasome that is responsible for the effects of these compounds on hair follicle differentiation and hair growth. Only proteasome inhibitors had discernable effects on these parameters.

[3] = read-out: Proteasome Activity (ED50-μM)

## c1ccc(N=NC2=NNc3ccccc3S2)cc1 [59-0008, 3-phenylazo-1H-4,1,2-benzothiadiazine]
Mouse BMP2 promoter
  concentration of maximal reactivity: 3 to 10 µM

## CCCC[C@@H](C=O)NC(=O)[C@H](CC(C)C)NC(=O)[C@H](CC(C)C)NC(C)=O [ALLN, N-Acetyl-Leu-Leu-Nle-CHO] (Ac-Leu-Leu-[Nle]-aldehyde)
Proteasomal activity
  effects on proteasomal activity: no effects on proteasomal activity
[1]; [3]
  EC50: 1.5 µM
Hair follicles; dose not given
  effect on hair follicles: had no effect on hair follicles
Mouse BMP2 promoter
  EC50: 10 µM

## COc1cc(CNC(=O)CCCC/C=C/C(C)C)ccc1O [Capsaicin]
[1]
  EC50: 30 µM
Mouse BMP2 promoter
  activity in the ABA assay compared with proteasome inhibitors: less active
  response in the high throughput luciferase screen: do not give promising responses
Neonatal mouse calvaria
  new bone formation in the in vitro calvarial assay: appeared negative

## CN1C(=O)C23CC4=CC=C[C@H](O)C4N2C(=O)C1(CO)SS3 (stereo partly shown) [Gliotoxin]
Mouse BMP2 promoter
  response in the high throughput luciferase screen: do not give promising responses
Neonatal mouse calvaria
  new bone formation in the in vitro calvarial assay: did demonstrate the ability to stimulate bone growth
  EC50: 10 µM

## CC(C)C[C@H](NC(=O)[C@H](CC(C)C)NC(=O)[C@H](CC(C)C)NC(=O)OCc1ccccc1)B(O)O [MG262]
[1]; [3]
  EC50: 0.07 µM
Mouse BMP2 promoter
  EC50: 0.1 µM
Neonatal mouse calvaria; calvarial assay in vitro
  EC50: 0.1 µM

## CSCCC(C=O)NC(=O)C(CC(C)C)NC(=O)C(CC(C)C)NC(C)=O (stereo not drawn) [N-Acetyl-Leu-Leu-Meth-CHO, N-Acetyl-Leu-Leu-Met-CHO] (Ac-Leu-Leu-Met-aldehyde; configuration not given here)
[1]
  EC50: 4 µM

## S=C(S)N1CCCC1 [PDTC, 1-pyrrolidinecarbodithioic acid]
Proteasomal activity
  effects on proteasomal activity: no effects on proteasomal activity
[2]
  effect on follicle growth: did not significantly affect follicle growth
Hair follicles; dose not given
  effect on hair follicles: had no effect on hair follicles
Mouse BMP2 promoter
  response in the high throughput luciferase screen: do not give promising responses
Neonatal mouse calvaria
  new bone formation in the in vitro calvarial assay: appeared negative

## O=C(NC1=CC(=O)c2ccccc2C1=O)c1ccccc1 [PPM-18, 2-benzoylamino-1,4-naphthoguinone]
Proteasomal activity
  effects on proteasomal activity: no effects on proteasomal activity
Hair follicles; dose not given
  effect on hair follicles: had no effect on hair follicles

## CC(=O)CCCCn1c(=O)c2c(ncn2C)n(C)c1=O [PTX, pentoxyfilline]
Neonatal mouse calvaria
  lowest concentration enhancing new bone formation (as low as): 0.1 μm
  new bone formation in the in vitro calvarial assay: active
Neonatal mouse calvaria; 100 μm
  increase of new bone area: ~3 times that of control
Neonatal mouse calvaria; concentration of 10 μm
  enhancement of new bone area over control: over 100%

## COc1cc(/C=C/C(=O)CC(=O)/C=C/c2ccc(O)c(OC)c2)ccc1O [curcumin]
Mouse BMP2 promoter
  activity in the ABA assay compared with proteasome inhibitors: less active

## CC[C@H](C)C(=O)O[C@H]1C[C@@H](C)C=C2C=C[C@H](C)[C@H](CC[C@@H]3C[C@@H](O)CC(=O)O3)[C@H]21 [lovastatin]
Proteasomal activity
  effects on proteasomal activity: no effects on proteasomal activity
Hair follicles; injected locally into the subcutaneous tissue in sufficient concentrations to cause local periosteal bone formation
  effect on hair follicles: had no effect on hair follicles

## C=C(C)[C@]12C[C@@H](C)[C@@]34O[C@](Cc5ccccc5)(O[C@@H]1[C@@H]3C=C(COC(=O)Cc1ccc(O)c(OC)c1)C[C@]1(O)C(=O)C(C)=C[C@@H]41)O2 [resiniferatoxin]
Mouse BMP2 promoter
  activity in the ABA assay compared with proteasome inhibitors: less active

## CC[C@H](CO)Nc1nc(NCc2ccccc2)c2ncn(C(C)C)c2n1 [roscovitine]
[2]
  effect on follicle growth: did not significantly affect follicle growth
Mouse BMP2 promoter
  response in the high throughput luciferase screen: do not give promising responses
Neonatal mouse calvaria
  new bone formation in the in vitro calvarial assay: appeared negative
